Data as given in patent US20260317367A1, “SALTS INCLUDING CRYSTALLINE SALTS OF 25-HYDROXY-CHOLEST-5-EN-3-SULFATE AND METHODS FOR PREPARING SAME” (Durect Corporation, priority 2022, published 2026).
Where a name gives a salt, the structure may show the parent alone. Blank lines part the entries; values can stand above or below the compound they belong to.

How the values were obtained:
Assay type in all cases: physicochemical
[1] = Solubility of 25HC3S salts after one day at room temperature (HPLC, as free acid)
In short: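 25HC3S salts were shaken with excess solid at room temperature for one day in organic solvents or aqueous/biorelevant media (FaSSIF, FeSSIF, FaSSGF), then centrifuged. Supernatants were assayed by HPLC against a free-acid standard curve (11 μg/mL to 1.5 mg/mL); values are mg/mL free acid, LOD 0.0007 mg/mL.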

[2] = Final pH of the solubility sample solutions in aqueous media; conditions: for pH of the solubility sample, 0.9% Sodium Chloride: 0.9% sodium chloride (blank 5.8); for pH of the solubility sample, 5% Dextrose: 5% dextrose (blank 4.7); for pH of the solubility sample, FaSSGF: FaSSGF (blank 1.5, 1.6); for pH of the solubility sample, FaSSIF: FaSSIF (blank 6.5, 6.5); for pH of the solubility sample, FeSSIF: FeSSIF (blank 4.9, 5.0); for pH of the solubility sample, Water: water (blank 6.3)
In short: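 25HC3S salts shaken as excess-solid suspensions in aqueous media at room temperature (210 motions/min) for one day. Aliquots centrifuged at 12000 rpm for 12–15 min; clear supernatant assayed undiluted by HPLC.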

[3] = Solid-state chemical stability of 25HC3S salts at 2-8° C., 60° C. and 80° C. (HPLC assay and degradation products); conditions: for % Impurities, Total / % Impurities, 25-HC: ND = Not Detected; for % Impurities, 25-HC: 25-Hydroxy-Cholesterol; for % Recovery: vs 2-8° C.
In short: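 Crystalline 25HC3S salts (~25 mg powder per vial) stored at 2-8° C. or 80° C., pulled at 3 and 6 weeks; some 3-week 2-8° C. vials moved to 60° C. for 1 week. Dissolved in 100% methanol (sonication/vortexing, centrifugation or dilution), then HPLC against 25HC3S sodium standards (0.75-1.25 mg/mL) for assay and degradants.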

[4] = Appearance (color, clumping, flowability) of stored 25HC3S salts
[5] = Angle of repose of 25HC3S salts; conditions: for Flow Property per USP<1174> Powder Flow: classification by angle of repose
In short: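 About 2 g of salt powder was poured through a 7 mm inner-diameter tube into a 21.14 mm rubber O-ring, forming a cone of fixed diameter. Cone height was measured with calipers and the angle of repose was calculated from it. Flow was classified per USP<1174>.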

[6] = Overall rank order of powder flowability (angle of repose and Hausner ratio); conditions: for Powder flowability, overall (in words): angle of repose and compressibility index/Hausner ratio combined; for Angle of Repose Rank Order / Hausner Ratio Rank Order / Overall Rank Order (Total Score): lower is better flow; for Overall Rank Order (Total Score): sum of both ranks
Text: Table C5 was generated by adding the relative rank order of the 25HC3S salts for angle of repose and Hausner ratio results, and creating an Over All Rank Order of the salts powder flowability. The salts with the lower overall rank order score had better powder flowability.

[7] = listed as 25HC3S tromethammonium
[8] = 2-8° C., 3 wk, listed as 25HC3S tromethammonium
[9] = 80° C., 3 wk, listed as 25HC3S tromethammonium
[10] = 80° C., 5 wk, listed as 25HC3S tromethammonium
[11] = 80° C., 5 wk, 50400 min, listed as 25HC3S tromethammonium
[12] = room temperature, one day, listed as crystalline 25HC3S benzathine
[13] = room temperature, one day, listed as benzathine salt of 25HC3S
[14] = 2-8° C., 3 wk, listed as 25HC3S benzathine
[15] = 80° C., 3 wk, listed as 25HC3S benzathine
[16] = 80° C., 5 wk, 50400 min, listed as 25HC3S benzathine

Solubility in FaSSGF (in words) ([1]; room temperature, one day): high solubility
Solubility in FaSSIF (in words) ([1]; room temperature, one day): high solubility
Solubility in FeSSIF (in words) ([1]; room temperature, one day): high solubility
Solubility in saline / 0.9% sodium chloride (in words) ([1]; room temperature, one day, listed as crystalline 25HC3S tromethammonium): low solubility
pH of the solubility sample, 0.9% Sodium Chloride [2, 7]: 7.2
pH of the solubility sample, 5% Dextrose [2, 7]: 7.2
pH of the solubility sample, FaSSGF [2]: 1.6
pH of the solubility sample, FaSSIF [2, 7]: 6.5
pH of the solubility sample, FeSSIF [2, 7]: 4.9
pH of the solubility sample, Water [2, 7]: 8.4
Assay ([3]; 2-8° C., 3 wk, 30240 min, listed as 25HC3S tromethammonium): 99.4 % w/w
% Impurities, Total [3, 8]: 0.9%
Assay ([3]; 2-8° C., 5 wk, 50400 min, listed as 25HC3S tromethammonium): 105.4 % w/w
% Impurities, Total ([3]; 2-8° C., 5 wk, listed as 25HC3S tromethammonium): 0.7%
% Impurities, 25-HC [3, 8]: 0.1%
% Impurities, 25-HC [3, 9]: 0.1%
% Impurities, 25-HC [3, 10]: 2.1%
Stressed stability at 80° C. (in words) ([3]; 80° C.): good, stressed stability
Physical and chemical solid-state stability (comments) ([3]; 80° C., 3 weeks, listed as 25HC3S Tromethammonium): Stable after 3 weeks at 80 °C
% Recovery ([3]; 80° C., 3 wk, 30240 min, listed as 25HC3S tromethammonium, 30240 min): 99.8%
Assay ([3]; 80° C., 3 wk, 30240 min, listed as 25HC3S tromethammonium): 99.2 % w/w
% Impurities, Total [3, 9]: 1.2%
% Recovery, 2-8° C./5 wk vs 80° C./5 wk [3, 11]: 91.1%
Assay [3, 11]: 96.0 % w/w
% Impurities, Total [3, 10]: 12.3%
Stability after 3 weeks at 80° C. (in words) ([3]; solid state, 80° C., 3 weeks): stable
degraded at 840 h ([3]; solid state, 80° C., 5 weeks, read-out: Degradation based on % Recovery to the 2-8° C. control samples): ~9%
Appearance [4, 8]: White, free flowing powder with clumping
Appearance ([4]; 2-8° C., 5 wk): White, free flowing powder with clumping
Appearance [4, 9]: White, free flowing powder with clumping
Appearance ([4]; 80° C., 5 wk): White, free flowing powder with clumping
Flow Property per USP<1174> Powder Flow [5, 7]: Fair - aid not needed
Angle of Repose [5, 7]: 40.2 degrees
Angle of Repose, Rounded Whole Number [5, 7]: 40 degrees
Powder flowability, overall (in words) ([6]; listed as tromethammonium): next group
Angle of Repose Rank Order [6, 7]: 8
Hausner Ratio Rank Order [6, 7]: 6
Overall Rank Order (Total Score) [6, 7]: 14
Compound: CC(CCCC(C)(C)O)C1CCC2C3CC=C4CC(OS(=O)(=O)O)CCC4(C)C3CCC12C (stereo not shown) [Salt #8]

Solubility in 5% Dextrose ([1]; 5% dextrose, room temperature, one day, as free acid, LOD 0.0007 mg/mL): No solubilized drug was detected
Solubility in FaSSGF (in words) [1, 12]: low solubility
Solubility in FaSSIF (in words) [1, 13]: low solubility
Solubility in FaSSGF ([1]; Fasted State Simulated Gastric Fluid, pH 1.6, room temperature, one day, as free acid, LOD 0.0007 mg/mL): no solubilized drug was detected
Solubility in FaSSIF ([1]; Fasted State Simulated Intestinal Fluid, room temperature, one day, as free acid, 1440 min): 4 µg/mL
Solubility in FeSSIF (in words) [1, 13]: low solubility
Solubility in FeSSIF ([1]; Fed State Simulated Intestinal Fluid, pH 4.9 to 5.0, room temperature, one day, as free acid, 1440 min): 25 µg/mL
Solubility in all aqueous and organic solvents (in words) ([1]; all the aqueous and organic solvents examined): lowest solubility
Solubility in saline / 0.9% sodium chloride (in words) [1, 12]: low solubility
solubility at 24 h ([1]; water, room temperature, one day, as 25HC3S free acid, read-out: Solubility in water): 6 µg/mL
pH of the solubility sample, 0.9% Sodium Chloride ([2]; listed as 25HC3S benzathine): 8.2
pH of the solubility sample, 5% Dextrose ([2]; listed as 25HC3S benzathine): 7.1
pH of the solubility sample, FaSSGF [2]: 1.6
pH of the solubility sample, FaSSIF ([2]; listed as 25HC3S benzathine): 6.5
pH of the solubility sample, FeSSIF [2]: 5.0
pH of the solubility sample, Water ([2]; listed as 25HC3S benzathine): 8.6
Assay ([3]; 2-8° C., 3 wk, 30240 min, listed as 25HC3S benzathine): 87.6 % w/w
% Impurities, Total [3, 14]: 64.0%
Assay ([3]; 2-8° C., 5 wk, 50400 min, listed as 25HC3S benzathine): 77.1 % w/w
% Impurities, Total ([3]; 2-8° C., 5 wk, listed as 25HC3S benzathine): 64.2%
Change of assay value (in words) ([3]; 3 weeks and 5 weeks, 2-8° C. and 80° C.): dropped at a similar rate
% Recovery ([3]; 80° C., 3 wk, 30240 min, listed as 25HC3S benzathine, 30240 min): 97.4%
Assay ([3]; 80° C., 3 wk, 30240 min, listed as 25HC3S benzathine): 85.3 % w/w
% Impurities, Total [3, 15]: 64.3%
% Recovery, 2-8° C./5 wk vs 80° C./5 wk [3, 16]: 91.8%
Assay [3, 16]: 70.8 % w/w
% Impurities, Total ([3]; 80° C., 5 wk, listed as 25HC3S benzathine): 65.3%
degraded ([3]; solid state, 3 weeks and 5 weeks, 2-8° C. and 80° C., read-out: Degradation by area normalization): 64 to 65%
Appearance [4, 14]: White, free flowing powder with some
Appearance ([4]; 2-8° C., 5 wk): White, free flowing powder with clumping
Appearance [4, 15]: White, free flowing powder with clumping
Appearance ([4]; 80° C., 5 wk): White, free flowing powder with clumping
Flow Property per USP<1174> Powder Flow ([5]; listed as 25HC3S benzathine): Passable - may hang up
Angle of Repose ([5]; listed as 25HC3S benzathine): 43.7 degrees
Angle of Repose, Rounded Whole Number ([5]; listed as 25HC3S benzathine): 44 degrees
Powder flowability, overall (in words) ([6]; listed as benzathine): next group
Angle of Repose Rank Order ([6]; listed as 25HC3S benzathine): 12
Hausner Ratio Rank Order ([6]; listed as 25HC3S benzathine): 7
Overall Rank Order (Total Score) ([6]; listed as 25HC3S benzathine): 19
Compound: CC(CCCC(C)(C)O)C1CCC2C3CC=C4CC(OS(=O)(=O)O)CCC4(C)C3CCC12C (stereo not shown) [Salt #9]
degradation by area normalization ([3]; 3 and 5 weeks, 2-8° C. and 80° C.): normalization were all approximately 64%-65% indicating that thermal
assay drop (comments) ([3]; 3 weeks at 2-8° C. and 80° C. as well as after 5 weeks): The assay dropped at a similar rate after 3 weeks at 2-8 °C and 80 °C
